Assay results published in the NIST ThermoML archive (doi:10.1007/s10765-010-0768-y).

Assay: xn = mol fraction of the nth substance listed
Conditions: 101 kPa, Liquid, Pycnometric method

C=CC(=O)OCCCC [butyl 2-propenoate] + Cc1cc(C)cc(C)c1
mass density [kg/m3]
Conditions	288.15 K	293.15 K	298.15 K	303.15 K	308.15 K	313.15 K	318.15 K
x1 = 0.0724	871.63	867.64	863.65	859.66	855.67	851.68	847.69
x1 = 0.1414	873.88	869.82	865.76	861.7	857.64	853.58	849.52
x1 = 0.2135	876.24	872.11	867.99	863.87	859.75	855.63	851.51
x1 = 0.2846	878.6	874.42	870.24	866.06	861.88	857.71	853.54
x1 = 0.3512	880.84	876.6	872.37	868.14	863.91	859.68	855.45
x1 = 0.4223	883.26	878.97	874.68	870.39	866.1	861.81	857.53
x1 = 0.4998	885.94	881.58	877.22	872.87	868.52	864.17	859.82
x1 = 0.5724	888.47	884.05	879.63	875.21	870.8	866.39	861.98
x1 = 0.6578	891.46	886.97	882.48	877.99	873.5	869.02	864.54
x1 = 0.7131	893.41	888.87	884.33	879.8	875.27	870.74	866.21
x1 = 0.7823	895.86	891.26	886.66	882.07	877.48	872.89	868.3
x1 = 0.8563	898.49	893.83	889.17	884.52	879.87	875.22	870.57
x1 = 0.9295	901.09	896.38	891.67	886.96	882.26	877.56	872.86
x1 = 1	903.6	898.85	894.1	889.35	884.6	879.85	875.1

C=CC(=O)OCCCC [butyl 2-propenoate] + Cc1ccc(C)cc1
mass density [kg/m3]
Conditions	288.15 K	293.15 K	298.15 K	303.15 K	308.15 K	313.15 K	318.15 K
x1 = 0.0712	868.91	864.5	860.09	855.68	851.28	846.88	842.48
x1 = 0.1429	872.25	867.79	863.33	858.87	854.42	849.97	845.52
x1 = 0.213	875.39	870.89	866.39	861.89	857.39	852.9	848.41
x1 = 0.2833	878.45	873.91	869.37	864.84	860.31	855.78	851.25
x1 = 0.3623	881.76	877.19	872.62	868.05	863.48	858.91	854.34
x1 = 0.4313	884.56	879.95	875.34	870.74	866.14	861.54	856.94
x1 = 0.5088	887.58	882.94	878.3	873.66	869.03	864.4	859.77
x1 = 0.5829	890.35	885.68	881.01	876.34	871.68	867.02	862.36
x1 = 0.6542	892.91	888.21	883.51	878.82	874.13	869.44	864.75
x1 = 0.7216	895.22	890.5	885.78	881.06	876.35	871.64	866.93
x1 = 0.7922	897.54	892.8	888.06	883.32	878.58	873.85	869.12
x1 = 0.8586	899.61	894.85	890.09	885.33	880.58	875.83	871.08
x1 = 0.9294	901.67	896.91	892.15	887.39	882.63	877.88	873.13
x1 = 1	903.6	898.85	894.1	889.35	884.6	879.85	875.1

C=CC(=O)OCCCC [butyl 2-propenoate] + Cc1cccc(C)c1
mass density [kg/m3]
Conditions	288.15 K	293.15 K	298.15 K	303.15 K	308.15 K	313.15 K	318.15 K
x1 = 0.0732	871.73	867.39	863.05	858.71	854.37	850.04	845.71
x1 = 0.1432	874.65	870.26	865.87	861.48	857.1	852.72	848.34
x1 = 0.2103	877.37	872.94	868.51	864.08	859.66	855.24	850.82
x1 = 0.2841	880.28	875.81	871.34	866.87	862.41	857.95	853.49
x1 = 0.3605	883.19	878.68	874.17	869.66	865.16	860.66	856.16
x1 = 0.4318	885.82	881.28	876.74	872.2	867.66	863.12	858.58
x1 = 0.5006	888.28	883.7	879.12	874.55	869.98	865.41	860.84
x1 = 0.5778	890.95	886.34	881.73	877.12	872.51	867.9	863.3
x1 = 0.6534	893.46	888.81	884.17	879.53	874.89	870.25	865.61
x1 = 0.7204	895.6	890.93	886.26	881.59	876.92	872.25	867.58
x1 = 0.7935	897.84	893.13	888.43	883.73	879.03	874.33	869.63
x1 = 0.8579	899.73	895	890.27	885.54	880.82	876.1	871.38
x1 = 0.9306	901.78	897.03	892.28	887.53	882.79	878.05	873.31
x1 = 1	903.6	898.85	894.1	889.35	884.6	879.85	875.1
